The text below walks through data of patent US12209099B2, “Azetidobenzodiazepine dimers and conjugates comprising them for use in the treatment of cancer” (MEDIMMUNE LIMITED, priority 2019, dated 2025).

Broadly, the IC50 is the midpoint of a concentration-inhibition curve. Read a high IC50 as weaker potency.

This assay concerns carcinoma cell line NCI-N87. Kind of assay: Cytotoxicity assay of warheads (MTS, 7 days). Type of assay: cell-based. Conditions: Homo sapiens, 168 h, NCI-N87, 7 days incubation, mean of three independent replicates. As for the experimental part: The potency of the molecules were measured via in vitro cytotox assays in the carcinoma cell line NCI-N87.
Solid material was dissolved in DMSO to a 2 mM stock solution, from which eight serial dilutions were made at a 1:10 ratio in DMSO and stored at −20° C. until use.
Adherent NCI-N87 cells were washed with D-PBS and detached with Trypsin-EDTA, cell density and viability were then determined in duplicate by Trypan blue exclusion assay using an automated cell counter (LUNA-II™). Cell suspension was diluted to 1×10^5 cells/ml in growth media (RPMI 1640 with Glutamax+10% (v/v) HyClone™ Fetal Bovine Serum) and vortexed before dispensing 2 mL per well into sterile 3 mL polypropylene plates. Warhead dilutions were then dispensed into the appropriate wells at 10 μl/well and mixed by repeat pipetting. For control wells 10 μl of DMSO was dispensed onto 2 mL cell suspension, and thoroughly mixed. 100 μl of each sample was then aliquoted into 2 replicate wells of a sterile flat 96-well microplate and incubated in a 37° C. CO2-gassed (5%) incubator. At the end of the incubation period time (7 days), cell viability was measured by CellTiter 96 Aqueous One (MTS) assay, which was dispensed at 20 μl/well and incubated for 4 hours at 37° C., 5% CO2. Plates were then read on an EnVision Multi-label Plate Reader (Perkin Elmer) using absorbance at 490 nm.
Cell survival percentage was calculated from the mean absorbance of the 2 replicate wells for each sample, compared to the mean absorbance in the two control wells treated with DMSO only (100%). The IC50 was determined by fitting each data set to sigmoidal dose-response curves with a variable slope using the non-linear curve fit algorithm on the GraphPad Prism software (San Diego, CA).
All the experiments in this report were carried out and tested in three independent experiments. Data are reported as the mean of the three independent replicates.

Each structure is given as a SMILES string.

On to `COc1cc2c(cc1OCCCOc1cc3c(cc1OC)C(=O)N1CC[C@H]1C=N3)N=C[C@@H]1CCN1C2=O` [Ex2A, (10aS,10a′S)-7,7′-(propane-1,3-diylbis(oxy))bis(6-methoxy-1,10a-dihydroazeto[1,2-a]benzo[e][1,4]diazepin-4(2H)-one)], for which the IC50 amounted to 70.1 nM. As for `COc1cc2c(cc1OCCCCCOc1cc3c(cc1OC)C(=O)N1CC[C@H]1C=N3)N=C[C@@H]1CCN1C2=O` [Ex1, (10aS,10a′S)-7,7′-(pentane-1,5-diylbis(oxy))bis(6-methoxy-1,10a-dihydroazeto[1,2-a]benzo[e][1,4]diazepin-4(2H)-one)], it took 2.2 nM to reach half-maximal inhibition (IC50). The same measure for `COc1cc2c(cc1OCc1cccc(COc3cc4c(cc3OC)C(=O)N3CC[C@H]3C=N4)c1)N=C[C@@H]1CCN1C2=O` [Ex2B, (10aS,10a′S)-7,7′-((1,3-phenylenebis(methylene))bis(oxy))bis(6-methoxy-1,10a-dihydroazeto[1,2-a]benzo[e][1,4]diazepin-4(2H)-one)]: 4.04 nM.
